Source: US20090247559A1 (Exelixis, Inc., priority 2007, published 2009)

Tests used:
[1] = biological target: PIM (PIM-1, PIM-2, and/or PIM-3); experiment: PIM-1, PIM-2 and PIM-3 inhibition, biochemical chemiluminescence assays (Kinase Glo, IC50 determination); conditions: Table 1 activity class; PIM refers to PIM-1, PIM-2, and/or PIM-3; read-out: PIM IC50 (Activity B)
[2] = biological target: CK2 (Homo sapiens, UniProt P68400); experiment: CK2 inhibition, biochemical chemiluminescence holoenzyme assay (Kinase Glo, IC50 determination); conditions: Table 1 activity class; symbol given only if active; read-out: CK2 IC50 (Activity C)
CK2, sequence (P68400 whole entry): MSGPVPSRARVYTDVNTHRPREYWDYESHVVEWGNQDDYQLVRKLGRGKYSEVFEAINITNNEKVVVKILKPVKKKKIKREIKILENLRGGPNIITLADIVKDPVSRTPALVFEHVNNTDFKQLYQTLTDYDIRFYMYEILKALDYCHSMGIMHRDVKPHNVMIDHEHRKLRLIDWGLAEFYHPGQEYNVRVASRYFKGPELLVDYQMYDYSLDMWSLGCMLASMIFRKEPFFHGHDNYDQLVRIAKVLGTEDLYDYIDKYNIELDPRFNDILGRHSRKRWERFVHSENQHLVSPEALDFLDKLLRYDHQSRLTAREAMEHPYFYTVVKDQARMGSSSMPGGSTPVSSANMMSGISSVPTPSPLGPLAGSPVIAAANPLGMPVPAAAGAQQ
CK2, sequence (P67870 whole entry partner): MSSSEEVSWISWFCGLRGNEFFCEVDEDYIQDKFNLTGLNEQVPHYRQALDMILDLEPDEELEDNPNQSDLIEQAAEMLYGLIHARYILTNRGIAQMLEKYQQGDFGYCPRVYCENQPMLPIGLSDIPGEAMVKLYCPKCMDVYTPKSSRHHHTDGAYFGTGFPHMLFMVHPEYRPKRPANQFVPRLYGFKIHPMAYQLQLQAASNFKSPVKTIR
Summary of the method: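 Holoenzyme CK2 assay; compounds pre-incubated with substrate and enzyme, then reacted 150 min at 24-27° C. Remaining ATP measured as luminescence with Kinase Glo, and IC50 derived from the signal.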

Row | Structure (SMILES) | IC50 [1] [µM] | IC50 [2] [µM]
1 | O=c1[nH]c(-c2ccc3c(c2)CCNC3)nc2c1oc1ccc(Br)cc12 [Compound 300, 8-Bromo-2-(1,2,3,4-tetrahydroisoquinolin-6-yl)[1]benzofuro[3,2-d]pyrimidin-4(3H)-one] | < 10 | < 10
2 | O=c1[nH]c(-c2ccc(N3CCNCC3)cc2)nc2c1oc1ccc(Br)cc12 [Compound 303, 8-Bromo-2-(4-piperazin-1-ylphenyl)[1]benzofuro[3,2-d]pyrimidin-4(3H)-one] | < 10 | < 10
3 | O=C1CC(c2nc3c(oc4ccc(Br)cc43)c(=O)[nH]2)CN1C1CCNCC1 (stereo not shown) [Compound 304, 8-Bromo-2-(5-oxo-1-piperidin-4-ylpyrrolidin-3-yl)[1]benzofuro[3,2-d]pyrimidin-4(3H)-one] | < 10 | < 10
4 | O=c1[nH]c(CN2CCCC(CO)C2)nc2c1oc1ccc(Br)cc12 (stereo not shown) [Compound 306, 8-bromo-2-{[3-(hydroxymethyl)piperidin-1-yl]methyl}[1]benzofuro[3,2-d]pyrimidin-4(3H)-one] | < 10 | < 10
5 | O=c1[nH]c(NCCO)nc2c1oc1ccc(Br)cc12 [Compound 309, 8-Bromo-2-[(2-hydroxyethyl)amino][1]benzofuro[3,2-d]pyrimidin-4(3H)-one] | < 10 | < 10
6 | O=C(O)Cc1nc2c(oc3ccc(Br)cc32)c(=O)[nH]1 [Compound 310, (8-bromo-4-oxo-3,4-dihydro[1]benzofuro[3,2-d]pyrimidin-2-yl)acetic acid] | < 10 | < 10
7 | O=C(Nc1ccc(Cl)c(-c2nc3c(oc4ccc(Br)cc43)c(=O)[nH]2)c1)c1ccncc1 [Compound 314, N-[3-(8-bromo-4-oxo-3,4-dihydro[1]benzofuro[3,2-d]pyrimidin-2-yl)-4-chlorophenyl]pyridine-4-carboxamide] | < 10 | < 10
8 | O=c1[nH]c(CN2CCC(F)(F)C2)nc2c1oc1ccc(Br)cc12 [Compound 318, 8-bromo-2-[(3,3-difluoropyrrolidin-1-yl)methyl][1]benzofuro[3,2-d]pyrimidin-4(3H)-one] | < 10 | < 10

The next lines start with the values.

Row | IC50 [1] [µM] | IC50 [2] [µM] | Structure (SMILES)
9 | < 10 | < 10 | O=C1CC(O)CN1Cc1nc2c(oc3ccc(Br)cc32)c(=O)[nH]1 (stereo not shown) [Compound 286, 8-bromo-2-[(4-hydroxy-2-oxopyrrolidin-1-yl)methyl][1]benzofuro[3,2-d]pyrimidin-4(3H)-one]
10 | < 10 | < 10 | O=c1[nH]c(COCC2CCNC2)nc2c1oc1ccc(Br)cc12 (stereo not shown) [Compound 288, 8-bromo-2-{[(pyrrolidin-3-ylmethyl)oxy]methyl}[1]benzofuro[3,2-d]pyrimidin-4(3H)-one]
11 | < 10 | < 10 | O=C(Nc1ccc(-c2nc3c(oc4ccc(Br)cc43)c(=O)[nH]2)c(Cl)c1)c1cccnc1 [Compound 292, N-[4-(8-bromo-4-oxo-3,4-dihydro[1]benzofuro[3,2-d]pyrimidin-2-yl)-3-chlorophenyl]pyridine-3-carboxamide]
12 | < 10 | < 10 | CCN1C[C@@H]2C[C@H]1CN2Cc1nc2c(oc3ccc(Br)cc32)c(=O)[nH]1 [Compound 295, 8-bromo-2-{[(1S,4S)-5-ethyl-2,5-diazabicyclo[2.2.1]hept-2-yl]methyl}[1]benzofuro[3,2-d]pyrimidin-4(3H)-one]
13 | < 10 | < 10 | CC(C)(C)OC(=O)N1CCOC(c2nc3c(oc4ccc(Br)cc43)c(=O)[nH]2)C1 (stereo not shown) [Compound 297, 1,1-Dimethylethyl 2-(8-bromo-4-oxo-3,4-dihydro[1]benzofuro[3,2-d]pyrimidin-2-yl)morpholine-4-carboxylate]
14 | < 10 | < 10 | O=c1[nH]c(-c2cc(OC3CCNCC3)no2)nc2c1oc1ccc(Br)cc12 [Compound 299, 8-Bromo-2-[3-(piperidin-4-yloxy)isoxazol-5-yl][1]benzofuro[3,2-d]pyrimidin-4(3H)-one]
